Assay results from US20220340597A1, “HEXAHYDRO-1H-PYRAZINO[1,2-A]PYRAZINE COMPOUNDS FOR THE TREATMENT OF AUTOIMMUNE DISEASE” (Hoffmann-La Roche Inc., priority 2019, published 2022).
pIC50: −log10 of the molar value.

Key:
human TLR8 = biological target: T1, human TLR8 (Homo sapiens, UniProt Q9NR97); assay: HEK293-Blue-hTLR-8 cells assay
T1 sequence (Q9NR97 27-1041): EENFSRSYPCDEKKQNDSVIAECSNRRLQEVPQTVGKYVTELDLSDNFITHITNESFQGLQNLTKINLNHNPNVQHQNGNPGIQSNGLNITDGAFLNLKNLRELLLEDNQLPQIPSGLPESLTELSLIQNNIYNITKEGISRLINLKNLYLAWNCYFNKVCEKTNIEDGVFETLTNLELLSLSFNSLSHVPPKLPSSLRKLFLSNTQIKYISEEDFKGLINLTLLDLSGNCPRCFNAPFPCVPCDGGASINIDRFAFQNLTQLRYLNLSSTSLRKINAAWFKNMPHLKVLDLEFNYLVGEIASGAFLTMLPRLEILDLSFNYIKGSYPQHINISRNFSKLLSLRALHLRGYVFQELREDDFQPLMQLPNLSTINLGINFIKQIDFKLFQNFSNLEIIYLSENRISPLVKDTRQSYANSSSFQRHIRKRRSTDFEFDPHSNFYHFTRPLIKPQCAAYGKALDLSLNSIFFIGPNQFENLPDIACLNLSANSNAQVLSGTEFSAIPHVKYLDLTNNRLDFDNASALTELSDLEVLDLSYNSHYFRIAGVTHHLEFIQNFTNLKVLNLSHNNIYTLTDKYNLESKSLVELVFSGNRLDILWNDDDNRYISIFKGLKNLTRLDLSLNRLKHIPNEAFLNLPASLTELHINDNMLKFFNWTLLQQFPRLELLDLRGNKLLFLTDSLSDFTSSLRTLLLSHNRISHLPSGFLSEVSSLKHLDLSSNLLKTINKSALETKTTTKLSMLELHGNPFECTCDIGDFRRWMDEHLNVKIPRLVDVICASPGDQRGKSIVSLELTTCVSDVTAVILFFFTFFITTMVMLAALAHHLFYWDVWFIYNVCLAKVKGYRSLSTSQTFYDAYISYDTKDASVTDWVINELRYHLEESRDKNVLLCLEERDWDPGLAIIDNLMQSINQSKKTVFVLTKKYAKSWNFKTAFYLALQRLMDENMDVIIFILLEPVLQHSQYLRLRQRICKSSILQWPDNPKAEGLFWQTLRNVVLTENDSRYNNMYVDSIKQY

human TLR7 = biological target: T2, human TLR7 (Homo sapiens, UniProt Q9NYK1); assay: HEK293-Blue-hTLR-7 cells assay; format: cell-based; conditions: HEK293-Blue-hTLR7 cells, R848 stimulation, 20 hrs, SEAP reporter; read-out: HEK/hTLR7 IC50
T2 construct: host or cells: HEK293 (HEK-Blue hTLR7)
T2 sequence (Q9NYK1 27-1049): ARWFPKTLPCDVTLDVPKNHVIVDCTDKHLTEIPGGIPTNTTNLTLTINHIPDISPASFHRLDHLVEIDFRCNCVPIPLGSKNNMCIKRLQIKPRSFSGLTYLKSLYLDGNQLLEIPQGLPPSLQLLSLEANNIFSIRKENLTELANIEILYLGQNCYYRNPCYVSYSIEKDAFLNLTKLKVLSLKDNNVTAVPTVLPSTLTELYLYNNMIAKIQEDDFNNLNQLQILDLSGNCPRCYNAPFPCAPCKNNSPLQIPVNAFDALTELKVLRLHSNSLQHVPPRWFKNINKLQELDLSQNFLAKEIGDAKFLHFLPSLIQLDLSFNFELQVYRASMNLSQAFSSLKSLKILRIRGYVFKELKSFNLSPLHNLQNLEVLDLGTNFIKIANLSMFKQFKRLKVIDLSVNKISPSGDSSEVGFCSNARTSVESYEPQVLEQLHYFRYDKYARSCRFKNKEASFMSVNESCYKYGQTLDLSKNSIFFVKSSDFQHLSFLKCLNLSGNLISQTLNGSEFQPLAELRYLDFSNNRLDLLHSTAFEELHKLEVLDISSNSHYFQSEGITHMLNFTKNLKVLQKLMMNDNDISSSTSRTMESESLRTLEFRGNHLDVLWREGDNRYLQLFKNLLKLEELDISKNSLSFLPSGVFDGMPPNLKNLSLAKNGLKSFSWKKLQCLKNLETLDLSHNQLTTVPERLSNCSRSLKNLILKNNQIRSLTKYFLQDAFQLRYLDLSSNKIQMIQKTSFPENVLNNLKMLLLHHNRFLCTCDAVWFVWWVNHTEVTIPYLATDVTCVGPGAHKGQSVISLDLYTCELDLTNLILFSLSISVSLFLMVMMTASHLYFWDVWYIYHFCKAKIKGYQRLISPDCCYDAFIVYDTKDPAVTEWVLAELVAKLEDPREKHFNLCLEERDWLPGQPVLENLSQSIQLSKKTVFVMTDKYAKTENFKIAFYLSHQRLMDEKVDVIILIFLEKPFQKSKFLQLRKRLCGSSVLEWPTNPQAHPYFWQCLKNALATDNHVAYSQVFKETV

| Compound | pIC50 (human TLR8) | pIC50 (human TLR7) |
| --- | --- | --- |
| [2H]c1ccc2c(N3C[C@@H]4CN(Cc5ccc(N[C@H]6CNC[C@H]6F)nc5C)CCN4[C@H](C)C3)ccc(C#N)c2n1 [Example 82, 5-[(4R,9aS)-8-[[6-[[(3S,4R)-4-fluoropyrrolidin-3-yl]amino]-2-methyl-3-pyridyl]methyl]-4-methyl-3,4,6,7,9,9a-hexahydro-JH-pyrazino[1,2-a]pyrazin-2-yl]-2-deuterio-quinoline-8-carbonitrile] | 8.52 | 7.92 |
| [2H]c1ccc2c(N3C[C@@H]4CN(CCc5ccc(N6CC[C@@](C)(N)C6)nc5)CCN4[C@H](C)C3)ccc(C#N)c2n1 [Example 84, 5-[(4R,9aS)-8-[2-[6-[(3R)-3-amino-3-methyl-pyrrolidin-1-yl]-3-pyridyl]ethyl]-4-methyl-3,4,6,7,9,9a-hexahydro-1H-pyrazino[1,2-a]pyrazin-2-yl]-2-deuterio-quinoline-8-carbonitrile] | 7.72 | 7.80 |
| [2H]c1ccc2c(N3C[C@@H]4CN(CCc5ccnc(N6C[C@@H](N)[C@@H](F)C6)c5)CCN4[C@H](C)C3)ccc(C#N)c2n1 [Example 89, 5-[(4R,9aS)-8-[2-[2-[(3R,4S)-3-amino-4-fluoro-pyrrolidin-1-yl]-4-pyridyl]ethyl]-4-methyl-3,4,6,7,9,9a-hexahydro-1H-pyrazino[1,2-a]pyrazin-2-yl]-2-deuterio-quinoline-8-carbonitrile] | 7.36 | 7.55 |
| [2H]c1ccc2c(N3C[C@@H]4CN(c5ncc(N6C[C@@H](N)[C@H](OC)C6)cc5C)CCN4[C@H](C)C3)ccc(C#N)c2n1 [Example 99, 5-[(4R,9aR)-8-[5-[(3R,4R)-3-amino-4-methoxy-pyrrolidin-1-yl]-3-methyl-2-pyridyl]-4-methyl-3,4,6,7,9,9a-hexahydro-1H-pyrazino[1,2-a]pyrazin-2-yl]-2-deuterio-quinoline-8-carbonitrile] | 8.70 | 9.00 |

Second part, the compound after the results:

| pIC50 (human TLR8) | pIC50 (human TLR7) | Compound |
| --- | --- | --- |
| 7.92 | 7.70 | C[C@@H]1CN(c2ccc(C#N)c3ncccc23)C[C@@H]2CN(Cc3ccnc(N4CCNCC4)c3)CCN21 (relative stereo) [Example 3] |
| 8.05 | 8.22 | [2H]c1ccc2c(N3C[C@@H]4CN(Cc5ccc(N6C[C@@H]7C[C@H]6CN7)nc5C)CCN4[C@H](C)C3)ccc(C#N)c2n1 [Example 92, 5-[(4R,9aS)-8-[[6-[(1S,4S)-2,5-diazabicyclo[2.2.1]heptan-2-yl]-2-methyl-3-pyridyl]methyl]-4-methyl-3,4,6,7,9,9a-hexahydro-1H-pyrazino[1,2-a]pyrazin-2-yl]-2-deuterio-quinoline-8-carbonitrile] |
| 7.82 | 7.77 | [2H]c1ccc2c(N3C[C@@H]4CN(Cc5cnc(N6CCNCC6)cc5C)CCN4[C@H](C)C3)ccc(C#N)c2n1 [Example 87, 5-[(4R,9aS)-4-methyl-8-[(4-methyl-6-piperazin-1-yl-3-pyridyl)methyl]-3,4,6,7,9,9a-hexahydro-1H-pyrazino[1,2-a]pyrazin-2-yl]-2-deuterio-quinoline-8-carbonitrile] |
| 7.92 | 7.82 | Cc1nc(N2CCN[C@H](C)C2)ccc1CN1CCN2[C@@H](C1)CN(c1ccc(C#N)c3ncccc13)C[C@H]2C [Example 86, 5-[(4R,9aS)-4-methyl-8-[[2-methyl-6-[(3R)-3-methylpiperazin-1-yl]-3-pyridyl]methyl]-3,4,6,7,9,9a-hexahydro-1H-pyrazino[1,2-a]pyrazin-2-yl]quinoline-8-carbonitrile] |
